In publication PMC8196714, “Design, Radiosynthesis and Preliminary Biological Evaluation in Mice of a Brain-Penetrant ^18F-Labelled σ2 Receptor Ligand” (International Journal of Molecular Sciences, 2021):

Legend:
[1] = target: T1, σ2 receptors expressed in F98 cells (Rattus norvegicus, UniProt Q5U3Y7); assay: Homologous competition with membrane homogenates of F98 cells; type: binding
T1 construct: σ2 receptors expressed in F98 cells; endogenous in cells; host or cells: F98 rat glioma cells
T1 sequence (Q5U3Y7 1-176): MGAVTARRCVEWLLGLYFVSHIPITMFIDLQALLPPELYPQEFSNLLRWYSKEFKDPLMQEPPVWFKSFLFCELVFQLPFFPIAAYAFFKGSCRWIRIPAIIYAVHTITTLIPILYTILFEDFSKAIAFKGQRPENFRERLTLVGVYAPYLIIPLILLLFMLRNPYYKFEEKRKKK
Excerpt: Initially, we investigated the binding of [^18F]RM273 on rat brain slices by autoradiography to compare the distribution pattern with that of established σ2 receptor ligands and to examine the target specificity. The highest binding was found in the cortical areas and hippocampal structures. […] Accordingly, we proceeded to investigate, in a rat glioblastoma model, the potential suitability of [^18F]RM273 for molecular characterization of cancer. At first, homologous competition studies using membrane homogenates of the rat glioma cell line F98 were performed to determine the σ2 receptor binding parameters of [^18F]RM273 cells (Figure 3).
Binding affinity experiments to assess the Ki values of test compounds towards rat σ2 receptors, human σ1 receptors, and rat VAChT were performed according to protocols previously published by our group. The same protocol was used to determine the KD and Bmax values of RM273 towards σ2 receptors expressed in F98 cells by homologous competition analyzing the displacement of [^18F]RM273 by RM273.
Figure 3 Determination of KD and Bmax values of [^18F]RM273. Homologous competition studies were performed by incubation of [^18F]RM273 at 5–7 different molar activities either with membrane homogenates of F98 cells (open squares) or cryosections of rat brain (n = 2) obtained about three weeks after stereotactic implantation of F98 cells (tumor region = filled circles; contralateral region = open circles). […] For the F98 cell homogenate, the maximum number of binding sites Bmax was calculated by division of the specific binding by the fractional occupancy fp (Bmax = 36,000 fmol/mg protein).

[2] = Quantification of radiometabolites in mouse tissues at 30 min p.i.; type: in vivo, CD-1 mice
Experimental: From quantitative analysis of the radio-chromatograms, which indicated the presence of solely [^18F]RM273 (>99%; n = 3; Supplemental Information Table S1 and Figure S2), we concluded that upon the presence of an intact BBB, the PET image derived from [^18F]RM273 in the brain was not affected by confounding radiometabolites.
About 30 MBq [^18F]RM273 dissolved in about 150 µL isotonic saline was administered intravenously as a bolus in the tail vein of in awake female CD-1 mice weighing about 33 g (n = 3). At 30 min p.i., the animals were anesthetized and blood was withdrawn by retrobulbar bleeding using glass capillaries. Immediately afterwards, the animals were euthanized by cervical dislocation, and released urine sampled. Blood plasma was obtained from the whole blood sample by centrifugation (2 min, 8000 rpm, room temperature). In addition, the brain, the liver, and the pancreas were isolated and homogenized in 1 mL demineralized water on ice (1000 rpm, 10 strokes; glass vessel, PTFE plunger; Potter S, B. Braun Biotech International, Goettingen, Germany). Bone marrow (n = 2) was isolated by flushing the femur with about 200 µL isotonic saline.
The samples were further processed for subsequent radio-chromatographic analyses. Two consecutive extractions were performed as duplicate for plasma and brain determinations. Plasma and brain samples were added to an ice-cold MeOH/H2O mixture (9:1, v/v). The samples were vortexed for 3 min, incubated on ice for 5 min, and centrifuged at 12,000 rpm for 5 min. Supernatants were collected, the precipitates were re-dissolved in 100 µL of extraction solvent, and the extraction procedure was repeated. The activities of supernatants and precipitates were measured in a γ-counter (1480 WIZARD, Fa. Perkin Elmer), and the extraction efficiencies were calculated as ratio of the radioactivity in the supernatant to the radioactivity in the original sample (supernatant + precipitate). The supernatants from both extractions were combined, concentrated at 70 °C under argon stream up to a remaining volume of 100 µL, and subsequently analyzed by analytical radio-HPLC with a gradient system as applied in Section 5.2.2.
3. Quantification of radiometabolites in mouse
Table 1. Radiometabolite analysis of [18F]RM273 in different tissues 30 min p.i.
Experiment 1 Experiment 2
Extraction Intact Extraction Intact Extraction Intact efficiency tracer efficiency tracer (%) efficiency tracer
Figure 2. Representative radio-HPLC chromatograms of the metabolism studies of [18F]RM273 in different tissues obtained at 30 min p.i.. (A) Brain, (B) Plasma, (C) Pancreas, (D)
Liver and (E) Bone marrow. Conditions:
Reprosil-Pur C18-AQ (250 x 4.6 mm; 5 μm); gradient (eluent A 10% MeCN/20 mM
NH4OAcaq.; eluent B 90 % MeCN/20 mM
(1 picture or pasted object on this page, not shown here)

[3] = Dynamic PET imaging in CD1 mice; type: in vivo; settings: i.v.
Experimental: As expected by the optimal lipophilicity of [^18F]RM273 (see 2.3, [43]) the PET images and the time–activity curve obtained for the whole brain shown in Figure 6 indicate a fast permeation of the BBB with a mean standardized uptake value (SUV) of 1.3 ± 0.4 at 2.25 min p.i. (n = 4).
The biodistribution of [^18F]RM273 in mice was assessed by dynamic small animal PET (Nanoscan, Mediso, Budapest, Hungary) 60 min recordings, followed by T1 weighted (GRE, TR/TE = 15.0/2.4 ms, 252/252, FA = 25°) imaging for anatomical correlation and attenuation correction. The mice weighing 31.7 ± 3.8 g were anaesthetized with 2% isoflurane in 60% oxygen and placed on a thermostatically heated animal bed. [^18F]RM273 (7.2 ± 1.1 MBq) was injected i.v. into the lateral tail vein (bolus within 5 s) at the start of the PET-acquisition. List mode PET data were binned as a series of attenuation-corrected sinogram frames (12 × 10 s, 6 × 30 s, 5 × 60 s and 10 × 300 s) and were reconstructed by Ordered Subset Expectation Maximization (OSEM3D) with four iterations, six subsets, and a voxel size of 0.4 mm^3 (Nucline v2.01, Mediso, Hungary). The analysis of reconstructed datasets was performed with PMOD software (v4.103, PMOD Technologies LLC, Zurich, Switzerland). […]

COc1cc2c(cc1OC)CN(CCCCn1ccc3ccc([18F])nc31)CC2 [[^18F]RM273]
Bmax equivalent ([1]; F98 cell homogenate, converted from fmol/mg protein): about 3600 fmol/mg tissue | Bmax ([1]; F98 cell membrane homogenate): 36,000 fmol/mg protein | Kd ([1]; F98 cell membrane homogenate, homologous competition): 12 nM | Intact tracer ([2]; Bone Marrow, Mouse 2): 97% | Intact tracer ([2]; Bone Marrow, Mouse 3): 97% | Intact tracer ([2]; Brain, Mouse 1): 100% | Intact tracer ([2]; Brain, Mouse 2): 100% | Intact tracer ([2]; Brain, Mouse 3): 100% | Intact tracer ([2]; Liver, Mouse 1): 34% | Intact tracer ([2]; Liver, Mouse 2): 36% | Intact tracer ([2]; Liver, Mouse 3): 28% | Intact tracer ([2]; Pancreas, Mouse 1): 100% | Intact tracer ([2]; Pancreas, Mouse 2): 96% | Intact tracer ([2]; Pancreas, Mouse 3): 96% | Intact tracer ([2]; Plasma, Mouse 1): 23% | Intact tracer ([2]; Plasma, Mouse 2): 37% | Intact tracer ([2]; Plasma, Mouse 3): 28% | intact radioligand in brain ([2]; mice, n = 3): > 99% | mean standardized uptake value (SUV), whole brain ([3]; 2.25 min p.i., n = 4): 1.3 ± 0.4 | peak-to-endpoint ratio, brain ([3]; 60 min PET): 6.4 ± 0.9
